According to article PMC12406253, “Exploration of the Neuromodulatory Properties of Fyn and GSK-3β Kinases Exploiting 7‑Azaindole-Based Inhibitors” (Journal of Medicinal Chemistry, 2025):
Counter-ions that a name gives are not always drawn.

Key:
[1] = target: human recombinant GSK-3β (Homo sapiens, UniProt P49841); assay: GSK-3β kinase assay, LANCE Ultra TR-FRET; type: biochemical; conditions: for IC50: mean ± SD of at least three independent determinations, ATP near Km
Protocol: GSK-3β and FYNα kinase assays were run in 384-well microplates (OptiPlate-384, White, PerkinElmer) in a total reaction volume of 20 μL. The inhibitory potency against human recombinant GSK-3β and FYNα (Carna Biosciences) was evaluated using the LANCE Ultra (PerkinElmer) time-resolved fluorescence resonance energy transfer (TR-FRET) by measuring the phosphorylation of the ULight-labeled substrate, according to the manufacturer's instructions. […] Briefly, test compounds and staurosporine (reference compound) or DMSO (control) are mixed with the enzyme (GSK-3β: 2 nM and FYNα: 1 nM) in a buffer containing 50 mM HEPES (pH 7.5), 1 mM EGTA, 10 mM MgCl2, 2 mM DTT, and 0.01% Tween-20. […] Following incubation, the reaction is stopped by adding 6 mM EDTA. After 5 min, the antiphospho antibody labeled with europium chelate is added. After 1 more hour, the kinase reaction is monitored by irradiation at 320 nm and the fluorescence measured at 615 and 665 nm, using EnVision 2014 Multilabel Reader (PerkinElmer). The calculated signal ratio at 665/615 nm is proportional to the extent of ULight-substrate phosphorylation. The compounds were tested at 11 different concentrations ranging from 3 nM up to 100 μM in triplicate. […] The results were expressed as a percent inhibition of the control enzyme activity. Dose-response curves were run in at least three independent experiments, performed in three technical replicates. IC50 values (concentrations causing half-maximal enzyme inhibition) were determined by nonlinear regression analysis of the Log[concentration]/response curves generated with mean replicate values using a four parameter Hill equation curve fitting with GraphPad Prism 8 (GraphPad Software Inc., CA-USA).

[2] = target: FYNα (Homo sapiens, UniProt P06241); assay: FYNα kinase assay, LANCE Ultra TR-FRET; type: biochemical; conditions: for Fyn % Inhibition @ 50 μM / inhibition at 50 µM: mean ± SD, n.i. = no inhibition; for IC50: mean ± SD of at least three independent determinations, ATP near Km, read-out: Fyn IC50; for inhibition at 50 µM: read-out: Fyn % Inhibition @ 50 μM
Sequence of FYNα (P06241 whole entry): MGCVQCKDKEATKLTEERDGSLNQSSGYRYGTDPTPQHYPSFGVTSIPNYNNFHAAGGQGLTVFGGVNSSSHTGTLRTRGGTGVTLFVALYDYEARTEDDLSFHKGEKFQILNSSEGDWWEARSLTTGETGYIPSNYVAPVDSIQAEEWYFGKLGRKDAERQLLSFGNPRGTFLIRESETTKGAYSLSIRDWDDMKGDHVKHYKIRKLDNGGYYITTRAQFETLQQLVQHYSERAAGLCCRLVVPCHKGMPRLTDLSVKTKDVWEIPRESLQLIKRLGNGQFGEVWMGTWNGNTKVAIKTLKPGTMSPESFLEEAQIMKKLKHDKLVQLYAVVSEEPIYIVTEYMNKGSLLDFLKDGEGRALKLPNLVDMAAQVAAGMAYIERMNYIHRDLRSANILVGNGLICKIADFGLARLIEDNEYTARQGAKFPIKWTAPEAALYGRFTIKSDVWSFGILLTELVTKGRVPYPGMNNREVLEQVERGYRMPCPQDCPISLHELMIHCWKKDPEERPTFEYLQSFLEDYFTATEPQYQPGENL
Protocol: GSK-3β and FYNα kinase assays were run in 384-well microplates (OptiPlate-384, White, PerkinElmer) in a total reaction volume of 20 μL. The inhibitory potency against human recombinant GSK-3β and FYNα (Carna Biosciences) was evaluated using the LANCE Ultra (PerkinElmer) time-resolved fluorescence resonance energy transfer (TR-FRET) by measuring the phosphorylation of the ULight-labeled substrate, according to the manufacturer’s instructions. The synthetic peptide surrounding Ser641 of human muscle glycogen synthase (ULight-GS (Ser641/pSer657)) and the synthetic 28-amino acid peptide containing eight Tyr residues placed in different amino acid contexts (ULightTM-TK (PT66)) were selected as specific substrates for GSK-3β and FYNα, respectively. Briefly, test compounds and staurosporine (reference compound) or DMSO (control) are mixed with the enzyme (GSK-3β: 2 nM and FYNα: 1 nM) in a buffer containing 50 mM HEPES (pH 7.5), 1 mM EGTA, 10 mM MgCl2, 2 mM DTT, and 0.01% Tween-20. […] Following incubation, the reaction is stopped by adding 6 mM EDTA. After 5 min, the antiphospho antibody labeled with europium chelate is added. After 1 more hour, the kinase reaction is monitored by irradiation at 320 nm and the fluorescence measured at 615 and 665 nm, using EnVision 2014 Multilabel Reader (PerkinElmer). The calculated signal ratio at 665/615 nm is proportional to the extent of ULight-substrate phosphorylation. The compounds were tested at 11 different concentrations ranging from 3 nM up to 100 μM in triplicate. […] The results were expressed as a percent inhibition of the control enzyme activity.
Dose–response curves were run in at least three independent experiments, performed in three technical replicates. IC50 values (concentrations causing half-maximal enzyme inhibition) were determined by nonlinear regression analysis of the Log[concentration]/response curves generated with mean replicate values using a four parameter Hill equation curve fitting with GraphPad Prism 8 (GraphPad Software Inc., CA-USA).

[3] = 50 μM, mean ± SD, n.i. = no inhibition

Sequence of human recombinant GSK-3β (P49841 whole entry): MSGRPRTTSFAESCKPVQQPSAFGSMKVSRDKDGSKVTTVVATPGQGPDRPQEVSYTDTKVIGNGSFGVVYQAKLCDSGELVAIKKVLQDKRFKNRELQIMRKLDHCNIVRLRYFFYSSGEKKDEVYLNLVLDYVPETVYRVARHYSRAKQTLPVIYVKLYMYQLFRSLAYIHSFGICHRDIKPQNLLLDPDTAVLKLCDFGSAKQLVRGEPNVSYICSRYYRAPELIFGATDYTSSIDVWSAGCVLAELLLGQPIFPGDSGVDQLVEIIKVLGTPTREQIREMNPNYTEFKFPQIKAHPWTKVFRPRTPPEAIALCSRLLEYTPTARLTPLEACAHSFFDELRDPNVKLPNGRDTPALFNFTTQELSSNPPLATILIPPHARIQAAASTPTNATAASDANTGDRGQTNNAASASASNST

Row | SMILES | inhibition at 50 µM [1, 3] [%] | Fyn % Inhibition @ 50 μM [2] | IC50 [2] [µM] | further results
1 | c1ccc(CCNc2nc(-c3c[nH]c4ncccc34)cs2)cc1 [Compound 31, N-Phenethyl-4-(1H-pyrrolo[2,3-b]pyridin-3-yl)thiazol-2-amine Hydrobromide] | – | – | – | IC50 [1]: 7.5 ± 1.29 µM
2 | c1ccc(Nc2nc(-c3c[nH]c4ncccc34)cs2)cc1 [Compound 6, N-Phenyl-4-(1H-pyrrolo[2,3-b]pyridin-3-yl)thiazol-2-amine] | – | – | – | inhibition at 50 µM [2]: 40%
3 | Br.O=C(Nc1nc(-c2c[nH]c3ncccc23)cs1)c1ccccc1 [Compound 32, N-(4-(1H-Pyrrolo[2,3-b]pyridin-3-yl)thiazol-2-yl)benzamide Hydrobromide] | – | n.i. | – | –
4 | Br.COc1ccc(Nc2nc(-c3c[nH]c4ncccc34)cs2)cc1 [Compound 12, N-(4-Methoxyphenyl)-4-(1H-pyrrolo[2,3-b]pyridin-3-yl)thiazol-2-amine Hydrobromide] | 34.6 | n.i. | – | –
5 | Nc1nc(-c2c[nH]c3ncccc23)cs1 [Compound I] | – | – | – | IC50 [1]: 6.84 ± 0.17 µM; inhibition at 50 µM [2]: 47.2%
6 | Fc1ccc(CNc2nc(-c3c[nH]c4ncccc34)cs2)cc1 [Compound 21, N-(4-Fluorobenzyl)-4-(1H-pyrrolo[2,3-b]pyridin-3-yl)thiazol-2-amine Hydrobromide] | – | – | 7.1 ± 0.47 | –
7 | Br.Clc1ccc(CNc2nc(-c3c[nH]c4ncccc34)cs2)cc1 [Compound 20, N-(4-Chlorobenzyl)-4-(1H-pyrrolo[2,3-b]pyridin-3-yl)thiazol-2-amine Hydrobromide] | – | n.i. | – | –
8 | Nc1ccc(Nc2nc(-c3c[nH]c4ncccc34)cs2)cc1 [Compound 16] | – | – | – | inhibition at 50 µM [2]: 42.9%
9 | Br.Cn1cc(-c2csc(NCc3ccccc3)n2)c2cccnc21 [Compound 35] | 9.8 | n.i. | – | –
10 | C=CCNc1nc(-c2c[nH]c3ncccc23)cs1 [Compound 4, N-Allyl-4-(1H-pyrrolo[2,3-b]pyridin-3-yl)thiazol-2-amine Hydrobromide] | 61.6 | – | – | inhibition at 50 µM [2]: 28.5%
11 | Br.c1cnc2[nH]cc(-c3csc(NC4CCCCC4)n3)c2c1 [Compound 5, N-Cyclohexyl-4-(1H-pyrrolo[2,3-b]pyridin-3-yl)thiazol-2-amine Hydrobromide] | 37.4 | n.i. | – | –
12 | CN(C)c1ccc(Nc2nc(-c3c[nH]c4ncccc34)cs2)cc1 [Compound 15, N ^1-(4-(1H-Pyrrolo[2,3-b]pyridin-3-yl)thiazol-2-yl)-N,^4 N ^4-dimethylbenzene-1,4-diamine Hydrobromide] | – | – | – | inhibition at 50 µM [2]: 11.4%
13 | Cc1ccc(CNc2nc(-c3c[nH]c4ncccc34)cs2)cc1 [Compound 22, N-(4-Methylbenzyl)-4-(1H-pyrrolo[2,3-b]pyridin-3-yl)thiazol-2-amine Hydrobromide] | – | – | – | inhibition at 100 µM ([1]; read-out: GSK-3β percentage of inhibition at the highest dose tested (100 μM)): 77.1%
14 | c1cnc2[nH]cc(-c3csc(NCc4cnccn4)n3)c2c1 [Compound 30, N-(Pyrazin-2-ylmethyl)-4-(1H-pyrrolo[2,3-b]pyridin-3-yl)thiazol-2-amine Hydrobromide] | – | – | 7.39 ± 0.37 | –
15 | c1ccc(CNc2nc(-c3c[nH]c4ncccc34)cs2)cc1 [Compound 7, N-Benzyl-4-(1H-pyrrolo[2,3-b]pyridin-3-yl)thiazol-2-amine Hydrobromide] | – | – | 2.04 ± 0.53 | –
16 | COc1ccccc1CNc1nc(-c2c[nH]c3ncccc23)cs1 [Compound 17, N-(2-Methoxybenzyl)-4-(1H-pyrrolo[2,3-b]pyridin-3-yl)thiazol-2-amine Hydrobromide] | – | – | 7.29 ± 1.03 | –

Continued, in another order:

Row | inhibition at 50 µM [1, 3] [%] | Fyn % Inhibition @ 50 μM [2] | IC50 [2] [µM] | SMILES | further results
17 | 50.1 | n.i. | – | Br.Cc1ccc(Nc2nc(-c3c[nH]c4ncccc34)cs2)cc1 [Compound 11, 4-(1H-Pyrrolo[2,3-b]pyridin-3-yl)-N-(p-tolyl)thiazol-2-amine Hydrobromide] | –
18 | – | – | 18.5 ± 2.49 | Nc1ccc(CNc2nc(-c3c[nH]c4ncccc34)cs2)cc1 [Compound 25] | –
19 | – | – | 15 ± 1.26 | c1cnc(CNc2nc(-c3c[nH]c4ncccc34)cs2)nc1 [Compound 29, N-(Pyrimidin-2-ylmethyl)-4-(1H-pyrrolo[2,3-b]pyridin-3-yl)thiazol-2-amine Hydrobromide] | –
20 | 4 | n.i. | – | Br.C=CCn1cc(-c2csc(NCc3ccccc3)n2)c2cccnc21 [Compound 36] | –
21 | 54.9 | n.i. | – | Br.CCCCNc1nc(-c2c[nH]c3ncccc23)cs1 [Compound 2, N-Butyl-4-(1H-pyrrolo[2,3-b]pyridin-3-yl)thiazol-2-amine Hydrobromide] | –
22 | 58.8 | – | – | COCCNc1nc(-c2c[nH]c3ncccc23)cs1 [Compound 3, N-(2-Methoxyethyl)-4-(1H-pyrrolo[2,3-b]pyridin-3-yl)thiazol-2-amine Hydrobromide] | inhibition at 50 µM [2]: 41.7%
23 | 65.8 | – | – | CNc1nc(-c2c[nH]c3ncccc23)cs1 [Compound 1, N-Methyl-4-(1H-pyrrolo[2,3-b]pyridin-3-yl)thiazol-2-amine Hydrobromide] | inhibition at 50 µM [2]: 22.3%
24 | – | – | 0.39 ± 0.11 | Cc1sc(NCc2ccccc2)nc1-c1c[nH]c2ncccc12 [Compound 39, N-Benzyl-5-methyl-4-(1H-pyrrolo[2,3-b]pyridin-3-yl)thiazol-2-amine Hydrobromide] | –
25 | – | – | 5.37 ± 1.29 | Clc1ccccc1CNc1nc(-c2c[nH]c3ncccc23)cs1 [Compound 18, N-(2-Chlorobenzyl)-4-(1H-pyrrolo[2,3-b]pyridin-3-yl)thiazol-2-amine Hydrobromide] | –
26 | 24.1 | – | – | c1ccc(Nc2nc(-c3c[nH]c4ncccc34)cs2)nc1 [Compound 10, N-(Pyridin-2-yl)-4-(1H-pyrrolo[2,3-b]pyridin-3-yl)thiazol-2-amine Hydrobromide] | inhibition at 50 µM [2]: 3.7%
27 | – | – | 0.55 ± 0.02 | Brc1cnc2[nH]cc(-c3csc(NCc4ccccc4)n3)c2c1 [Compound 38, N-Benzyl-4-(5-bromo-1H-pyrrolo[2,3-b]pyridin-3-yl)thiazol-2-amine Hydrobromide] | –
28 | – | – | 4.71 ± 0.55 | Clc1cccc(CNc2nc(-c3c[nH]c4ncccc34)cs2)c1 [Compound 19, N-(3-Chlorobenzyl)-4-(1H-pyrrolo[2,3-b]pyridin-3-yl)thiazol-2-amine Hydrobromide] | –
29 | 14.8 | n.i. | – | Br.Clc1ccc(Nc2nc(-c3c[nH]c4ncccc34)cs2)cc1 [Compound 13, N-(4-Chlorophenyl)-4-(1H-pyrrolo[2,3-b]pyridin-3-yl)thiazol-2-amine Hydrobromide] | –
30 | – | – | 5.21 ± 0.51 | O=[N+]([O-])c1ccc(CNc2nc(-c3c[nH]c4ncccc34)cs2)cc1 [Compound 24, N-(4-Nitrobenzyl)-4-(1H-pyrrolo[2,3-b]pyridin-3-yl)thiazol-2-amine Hydrobromide] | –
31 | 32.7 | – | – | Clc1ccccc1Nc1nc(-c2c[nH]c3ncccc23)cs1 [Compound 9, N-(2-Chlorophenyl)-4-(1H-pyrrolo[2,3-b]pyridin-3-yl)thiazol-2-amine Hydrobromide] | inhibition at 50 µM [2]: 55%
32 | 5.1 | n.i. | – | Br.c1ccc2c(Nc3nc(-c4c[nH]c5ncccc45)cs3)cccc2c1 [Compound 8, N-(Naphthalen-1-yl)-4-(1H-pyrrolo[2,3-b]pyridin-3-yl)thiazol-2-amine Hydrobromide] | –
33 | – | n.i. | – | Br.c1ccc(CNc2nc(-c3c[nH]c4ccccc34)cs2)cc1 [Compound 34] | GSK-3β % Inhibition @ 50 μM [1, 3]: n.i.
34 | – | n.i. | – | Br.Clc1cccc2c(-c3csc(NCc4ccccc4)n3)c[nH]c12 [Compound 37] | –
